Columns and labels:
Assay type in all cases: in vivo
Psylla piri = assay: Example 5: pear trees treated against Psylla piri; details: nymphs on shoots, g a.i./ha/m crown height: amitraz 266, I-4 72
Procedure: In three replications, pear trees of the cultivar “Williams Christ” are treated against Psylla piri. Application is shortly before the eggs hatch. The application is carried out using a barrow-mounted sprayer operated with pressurized air. Here, the active compound Example (I-4) (240 SC) is tested in a tank mix with 0.1% a.i. rapeseed oil methyl ester (500 EW) at the stated amount against the standard amitraz (200 EC) at the stated amount. The application rate is 1000 l of water/ha.
Evaluation is carried out 7, 14 and 21 days after the treatment by rating the kill of the nymphs on the shoots.

Pemphigus bursarius = assay: Example 3: chrysanthemums, lettuce root aphid; details: on roots, spray on above-ground parts 96 g of a.i./ha
Procedure: In three replications, in each case 10 about 5-month-old chrysanthemums (Camilla) in 2 l-vessels are treated against the lettuce root aphid Pemphigus bursarius. Here, the active compound Example (I-4) (240 SC) is applied with a knapsack sprayer operated by pressurized air at the beginning of the infestation at the stated application rates to the above-ground parts of the plants. The soil is covered with a film. The application rate is 600 l of water/ha. 0.1% a.i. of rapeseed oil methyl ester (500 EW) is added to the spray liquor. Omethoate as drip irrigation in a concentration of 0.1% is used for comparison. The application is carried out two days later.
The kill in percent is determined on the roots. […]

Paratrioza cockerelli = assay: Example 9: tomatoes treated against Paratrioza cockerelli; details: nymphs on leaves, g a.i./ha: Levarage 81, I-4 48
Procedure: In three replications, plots of a size of 10 m^2 with tomatoes are treated against Paratrioza cockerelli. Application is carried out using a knapsack sprayer operated with pressurized air. Here, the active compound Example (I-4) (240 SC) in a tank mix with 0.2% a.i. of rapeseed oil methyl ester (500 EW) and the commercial standard Leverage (324 SE) are tested at the stated application rates. There are two applications at an interval of 7 days. The application rate is 345 l of water/ha.
Evaluation is carried out 7, 14 and 21 days after the first treatment by rating the kill of the animals (nymphs) on the leaves.

Pulvinaria aurantii = assay: Example 11: satsuma trees treated against Pulvinaria aurantii; details: 41 days after treatment; live animals counted, Henderson and Tilton; satsuma tree; % a.i.: buprofezin 0.025, I-4 0.0144
Procedure: In three replications, in each case one about 4-year-old satsuma tree of the cultivar “Nankan 20” is treated against Pulvinaria aurantii. Here, the active compound Example (I-4) (240 SC) in a tank mix with 0.2% of rapeseed oil methyl ester (500 EW) at the stated application rate is tested against the commercial standard buprofezin at the stated application rate. The application is carried out using a motor-operated knapsack sprayer. Here, each plant is treated with 400 ml of spray liquor.
Evaluation is carried out before and 41 days after the treatment by counting the live animals. The efficacy in percent is then calculated according to Henderson and Tilton.

[1] = tested on: Pseudaulacaspis pentagona; assay: Example 24: tea plants treated against Pseudaulacaspis pentagona; details: crawlers on tea plants, % a.i.: Supracide EC 0.04, I-4 0.01
Procedure: In nine replications, about 7-week-old tea plants of the cultivar “Yakubita” are treated against Pseudaulacaspis pentagona. Here, the active compound Example (I-4) (200 SC) is tested against the commercial standard Supracide EC (400 EC) at the stated application rates. The application is carried out using a sprayer operated with pressurized air. Evaluation is carried out 16 and 35 days after the treatment by rating the kill of the crawlers on the plants.

Bemisia argentifolii = assay: Example 37: cantaloupe melons treated against Bemisia argentifolii; details: nymphs on leaves, g a.i./ha: endosulfan 1120, I-4 48
Procedure: In four replications, plots of a size of about 39 m^2 with cantaloupe melons of the cultivar “Western Shipper” are treated against Bemisia argentifolii. The application is carried out using a knapsack sprayer operated with pressurized air. Here, the active compound Example (I-4) (240 SC), in a tank mix with 0.2 a.i. of rapeseed oil methyl ester (500 EW), and the commercial standard endosulfan (360 EC) are tested at the stated application rates. Two applications are carried out at an interval of 16 days. The application rate is 187 l of water/ha.
Evaluation is carried out 5, 13, 21 and 29 days after the first treatment by rating the kill of the animals (nymphs) on the leaves.

Myzus persicae [2] = assay: Example 46: head lettuce treated against Myzus persicae; details: nymphs on plants, g a.i./ha: endosulfan 1120, I-4 48
Procedure: In four replications, plots of a size of about 33 m^2 with head lettuce of the cultivar “PIC 714” are treated against Aulacorthum solani, Macrosiphum euphorbiae and Myzus persicae. The application is carried out using a tractor sprayer. Here, the active compound Example (I-4) (240 SC), in a tank mix with 0.2% a.i. of rapeseed oil methyl ester (500 EW), is tested against the commercial standard endosulfan (360 EC), at the stated application rates. The application rate is 187 l of water/ha. Two treatments are carried out, at an interval of 22 days.
Evaluation is carried out 8, 22, 30 and 40 days after the first treatment by rating the kill of the nymphs on the plants.

Myzus persicae [3] = assay: Example 53: plum trees treated against Myzus persicae; details: population on shoots, g a.i./ha/m crown height: Actara 33.5, I-4 48
Procedure: In four replications, plum trees of the cultivar “Angeleno” of a height of about 2.8 m are treated against Myzus persicae. The application is carried out using a high-pressure sprayer. Here, the active compound Example (I-4) (100 OD), in the stated amount, is tested against the commercial standard Actara (25 WG), at the stated application rate. The application rate is 500 l of water/ha/crown height in m.
Evaluation is carried out 6, 9, 12, 20 days after the treatment by rating the kill of the population on the shoots.

[4] = 21 d after first of two treatments

## CCOC(=O)OC1=C(c2cc(C)ccc2C)C(=O)NC12CCC(OC)CC2 (centres unmarked) [Example (I-4)]
Psylla piri; 7 d after treatment
  Kill (%) 7 d: 100%
Psylla piri; 14 d after treatment
  Kill (%) 14 d: 100%
Psylla piri; 21 d after treatment
  Kill (%) 21 d: 100%
Pemphigus bursarius; 9 d
  Kill (%) 9 d: 46.9 (9 d) %
Pemphigus bursarius; 17 d
  Kill (%) (17 d): 80.4 (17 d) %
Paratrioza cockerelli; 7 d after first of two treatments
  Kill (%) 7 d: 71.3%
Paratrioza cockerelli; 14 d after first of two treatments
  Kill (%) 14 d: 90.3%
Paratrioza cockerelli; [4]
  Kill (%) 21 d: 95.5%
Pulvinaria aurantii
  Effect (%): 100%
[1]; 16 d after treatment
  Kill (%) 16 d: 81.8%
[1]; 35 d after treatment
  Kill (%) 35 d: 75%
Bemisia argentifolii; 5 d after first of two treatments
  Kill (%) 5 d: 100%
Bemisia argentifolii; 13 d after first of two treatments
  Kill (%) 13 d: 100%
Bemisia argentifolii; [4]
  Kill (%) 21 d: 98.1%
Bemisia argentifolii; 29 d after first of two treatments
  Kill (%) 29 d: 90.5%
Myzus persicae [2]; 8 d after first of two treatments
  Kill (%) 8 d: 95%
Myzus persicae [2]; 22 d after first of two treatments
  Kill (%) 22 d: 100%
Myzus persicae [2]; 30 d after first of two treatments
  Kill (%) 30 d: 88%
Myzus persicae [3]; 6 d after treatment
  Kill (%) 6 d: 96.4%
Myzus persicae [3]; 9 d after treatment
  Kill (%) 9 d: 99.7%
Myzus persicae [3]; 12 d after treatment
  Kill (%) 12 d: 99.8%
Myzus persicae [3]; 20 d after treatment
  Kill (%) 20 d: 99.9%
Myzus persicae [3]; 27 d after treatment
  Kill (%) 27 d: 99.9%

Reference: US20090012152A1, “Use of Tetramic Acid Derivatives for Controlling Insects from the Genus of the Plane Lice (Sternorrhyncha)” (Bayer CropScience Aktiengesellschaft, priority 2005, published 2009)
